≈ marks a conversion by molar mass, not a printed value.
Columns and labels:
Staphylococcus aureus [1] = test: Antibacterial activity against Staphylococcus aureus ATCC 25923 incubated for 18 hrs by broth microdilution method; type: functional
Bacillus subtilis [2] = test: Antibacterial activity against Bacillus subtilis ATCC 23857 incubated for 18 hrs by broth microdilution method; type: functional
[3] = system: Staphylococcus epidermidis; test: Antibacterial activity against Staphylococcus epidermidis ATCC 12228 incubated for 18 hrs by broth microdilution method; type: functional
Klebsiella pneumoniae [4] = test: Antibacterial activity against Klebsiella pneumoniae ATCC 700603 incubated for 18 hrs by broth microdilution method; type: functional
Escherichia coli [5] = test: Antibacterial activity against Escherichia coli ATCC 25922 incubated for 18 hrs by broth microdilution method; type: functional
Pseudomonas aeruginosa [6] = test: Antibacterial activity against Pseudomonas aeruginosa ATCC 27853 incubated for 18 hrs by broth microdilution method; type: functional
Staphylococcus aureus [7] = test: Bactericidal activity against Staphylococcus aureus ATCC 25923 incubated for 18 hrs by broth microdilution method; type: functional
Bacillus subtilis [8] = test: Bactericidal activity against Bacillus subtilis ATCC 23857 incubated for 18 hrs by broth microdilution method; type: functional
[9] = system: Staphylococcus epidermidis; test: Bactericidal activity against Staphylococcus epidermidis ATCC 12228 incubated for 18 hrs by broth microdilution method; type: functional
Klebsiella pneumoniae [10] = test: Bactericidal activity against Klebsiella pneumoniae ATCC 700603 incubated for 18 hrs by broth microdilution method; type: functional
Escherichia coli [11] = test: Bactericidal activity against Escherichia coli ATCC 25922 incubated for 18 hrs by broth microdilution method; type: functional
Pseudomonas aeruginosa [12] = test: Bactericidal activity against Pseudomonas aeruginosa ATCC 27853 incubated for 18 hrs by broth microdilution method; type: functional
Erythrocyte = test: Hemolytic activity in mouse erythrocytes assessed as concentration required to cause 10% hemolysis incubated for 1 hr; type: toxicity, cell-based
[13] = Retention time of the compound; type: physicochemical
Staphylococcus aureus [14] = test: Antibacterial activity against Staphylococcus aureus at 2 times MIC preincubated for 1 hr with trypsin followed by enzyme inactivation and bacterial addition and measured after 18 hrs; type: functional; details: time 19 hrs
Staphylococcus aureus [15] = test: Antibacterial activity against Staphylococcus aureus at 2 times MIC preincubated for 1 hr with chymotrypsin followed by enzyme inactivation and bacterial addition and measured after 18 hrs; type: functional; details: time 19 hrs
Staphylococcus aureus [16] = test: Antibacterial activity against methicillin resistant Staphylococcus aureus incubated for 18 hrs by broth microdilution method; type: functional
Staphylococcus aureus [17] = test: Antibacterial activity against methicillin resistant Staphylococcus aureus 113 incubated for 18 hrs by broth microdilution method; type: functional
Staphylococcus aureus [18] = test: Antibacterial activity against Staphylococcus aureus S794 incubated for 18 hrs by broth microdilution method; type: functional
Staphylococcus aureus [19] = test: Antibacterial activity against Staphylococcus aureus S125 incubated for 18 hrs by broth microdilution method; type: functional
Staphylococcus aureus [20] = test: Antibacterial activity against methicillin resistant Staphylococcus aureus 75 incubated for 18 hrs by broth microdilution method; type: functional
Staphylococcus aureus [21] = test: Antibacterial activity against Staphylococcus aureus incubated for 18 hrs by broth microdilution method; type: functional
Staphylococcus aureus [22] = test: Antibacterial activity against kanamycin resistant Staphylococcus aureus incubated for 18 hrs by broth microdilution method; type: functional
Staphylococcus aureus [23] = test: Antibacterial activity against rifampicin resistant Staphylococcus aureus incubated for 18 hrs by broth microdilution method; type: functional
Escherichia coli [24] = test: Antibacterial activity against Escherichia coli incubated for 18 hrs by broth microdilution method; type: functional
Escherichia coli [25] = test: Antibacterial activity against kanamycin resistant Escherichia coli incubated for 18 hrs by broth microdilution method; type: functional
Escherichia coli [26] = test: Antibacterial activity against rifampicin resistant Escherichia coli incubated for 18 hrs by broth microdilution method; type: functional

| Molecule | MIC (Staphylococcus aureus [1]) | MIC (Bacillus subtilis [2]) | MIC [3] | MIC (Klebsiella pneumoniae [4]) | MIC (Escherichia coli [5]) | MIC (Pseudomonas aeruginosa [6]) | MBC (Staphylococcus aureus [7]) | MBC (Bacillus subtilis [8]) | MBC [9] | MBC (Klebsiella pneumoniae [10]) | MBC (Escherichia coli [11]) | MBC (Pseudomonas aeruginosa [12]) | MHC (Erythrocyte) | Retention_time [13] | Activity (Staphylococcus aureus [14]) | Activity (Staphylococcus aureus [15]) | MIC (Staphylococcus aureus [16]) | MIC (Staphylococcus aureus [17]) | MIC (Staphylococcus aureus [18]) | MIC (Staphylococcus aureus [19]) | other results |
| --- | --- | --- | --- | --- | --- | --- | --- | --- | --- | --- | --- | --- | --- | --- | --- | --- | --- | --- | --- | --- | --- |
| NCCCC[C@@H](N)C(=O)N[C@H](Cc1c[nH]c2ccccc12)C(=O)N[C@H](CCCCN)C(=O)N[C@H](Cc1c[nH]c2ccccc12)C(=O)N[C@H](CCCCN)C(=O)N1CCC[C@@H]1C(=O)N1CCC[C@H]1C(=O)N[C@H](CCCCN)C(=O)N[C@H](Cc1c[nH]c2ccccc12)C(=O)N[C@H](CCCCN)C(=O)N[C@H](Cc1c[nH]c2ccccc12)C(=O)N[C@H](CCCCN)C(N)=O | 32 µM (≈ 55.2 µg/mL) | 4 µM (≈ 6.9 µg/mL) | 4 µM (≈ 6.9 µg/mL) | 16 µM (≈ 27.6 µg/mL) | 8 µM (≈ 13.8 µg/mL) | 4 µM (≈ 6.9 µg/mL) | 64 µM (≈ 110 µg/mL) | 8 µM (≈ 13.8 µg/mL) | 8 µM (≈ 13.8 µg/mL) | 16 µM (≈ 27.6 µg/mL) | 8 µM (≈ 13.8 µg/mL) | 32 µM (≈ 55.2 µg/mL) | > 512 µM | 11.03 min | 100% | 100% | – | – | – | – | – |
| CO/N=C(\C(=O)N[C@@H]1C(=O)N2C(C(=O)O)=C(COC(C)=O)CS[C@H]12)c1csc(N)n1 [CEFOTAXIME] | 2 µM (≈ 0.911 µg/mL) | 64 µM (≈ 29.2 µg/mL) | < 1 µM | 4 µM (≈ 1.82 µg/mL) | < 1 µM | 8 µM (≈ 3.64 µg/mL) | – | – | – | – | – | – | – | – | – | – | 256 µM (≈ 117 µg/mL) | 32 µM (≈ 14.6 µg/mL) | 256 µM (≈ 117 µg/mL) | 8 µM (≈ 3.64 µg/mL) | MIC (Staphylococcus aureus [20]): 256 µM (≈ 117 µg/mL); MIC (Staphylococcus aureus [21]): 2 µM (≈ 0.911 µg/mL); MIC (Staphylococcus aureus [22]): 0.5 µM (≈ 0.228 µg/mL); MIC (Staphylococcus aureus [23]): 0.5 µM (≈ 0.228 µg/mL); MIC (Escherichia coli [24]): 0.5 µM (≈ 0.228 µg/mL); MIC (Escherichia coli [25]): 64 µM (≈ 29.2 µg/mL); MIC (Escherichia coli [26]): 0.5 µM (≈ 0.228 µg/mL) |
| NCCCC[C@@H](NC(=O)[C@H](N)Cc1c[nH]c2ccccc12)C(=O)N[C@H](Cc1c[nH]c2ccccc12)C(=O)N[C@H](CCCCN)C(=O)N[C@H](Cc1c[nH]c2ccccc12)C(=O)N1CCC[C@@H]1C(=O)N1CCC[C@H]1C(=O)N[C@H](Cc1c[nH]c2ccccc12)C(=O)N[C@H](CCCCN)C(=O)N[C@H](Cc1c[nH]c2ccccc12)C(=O)N[C@H](CCCCN)C(=O)N[C@H](Cc1c[nH]c2ccccc12)C(N)=O | 4 µM (≈ 7.36 µg/mL) | 2 µM (≈ 3.68 µg/mL) | 4 µM (≈ 7.36 µg/mL) | 8 µM (≈ 14.7 µg/mL) | 4 µM (≈ 7.36 µg/mL) | 8 µM (≈ 14.7 µg/mL) | 8 µM (≈ 14.7 µg/mL) | 2 µM (≈ 3.68 µg/mL) | 8 µM (≈ 14.7 µg/mL) | 16 µM (≈ 29.5 µg/mL) | 4 µM (≈ 7.36 µg/mL) | 32 µM (≈ 58.9 µg/mL) | 243.5 µM | 14.321 min | 100% | 100% | – | – | – | – | – |
| NCCCC[C@@H](N)C(=O)N[C@H](Cc1c[nH]c2ccccc12)C(=O)N[C@H](CCCCN)C(=O)N[C@H](Cc1c[nH]c2ccccc12)C(=O)N[C@H](CCCCN)C(=O)N[C@@H](CC(N)=O)C(=O)NCC(=O)N[C@H](CCCCN)C(=O)N[C@H](Cc1c[nH]c2ccccc12)C(=O)N[C@H](CCCCN)C(=O)N[C@H](Cc1c[nH]c2ccccc12)C(=O)N[C@H](CCCCN)C(N)=O | 16 µM (≈ 27.2 µg/mL) | 2 µM (≈ 3.4 µg/mL) | 4 µM (≈ 6.81 µg/mL) | 64 µM (≈ 109 µg/mL) | 8 µM (≈ 13.6 µg/mL) | 32 µM (≈ 54.5 µg/mL) | 64 µM (≈ 109 µg/mL) | 8 µM (≈ 13.6 µg/mL) | 8 µM (≈ 13.6 µg/mL) | 128 µM (≈ 218 µg/mL) | 8 µM (≈ 13.6 µg/mL) | 128 µM (≈ 218 µg/mL) | > 512 µM | 11.03 min | 100% | 100% | – | – | – | – | – |
| NCCCC[C@@H](N)C(=O)N[C@H](Cc1c[nH]c2ccccc12)C(=O)N[C@H](CCCCN)C(=O)N[C@H](Cc1c[nH]c2ccccc12)C(=O)N[C@H](CCCCN)C(=O)NCC(=O)NCC(=O)N[C@H](CCCCN)C(=O)N[C@H](Cc1c[nH]c2ccccc12)C(=O)N[C@H](CCCCN)C(=O)N[C@H](Cc1c[nH]c2ccccc12)C(=O)N[C@H](CCCCN)C(N)=O | 16 µM (≈ 26.3 µg/mL) | 2 µM (≈ 3.29 µg/mL) | 4 µM (≈ 6.58 µg/mL) | 16 µM (≈ 26.3 µg/mL) | 8 µM (≈ 13.2 µg/mL) | 64 µM (≈ 105 µg/mL) | 32 µM (≈ 52.6 µg/mL) | 8 µM (≈ 13.2 µg/mL) | 8 µM (≈ 13.2 µg/mL) | 64 µM (≈ 105 µg/mL) | 8 µM (≈ 13.2 µg/mL) | 128 µM (≈ 211 µg/mL) | > 512 µM | 11.03 min | 100% | 100% | – | – | – | – | – |
| GENTAMICIN | – | – | – | – | – | – | – | – | – | – | – | – | – | – | – | – | 16 µM | 0.5 µM | 32 µM | 8 µM | MIC (Staphylococcus aureus [20]): 32 µM; MIC (Staphylococcus aureus [21]): 0.5 µM; MIC (Staphylococcus aureus [22]): 0.5 µM; MIC (Staphylococcus aureus [23]): 0.5 µM; MIC (Escherichia coli [24]): 0.5 µM; MIC (Escherichia coli [25]): 32 µM; MIC (Escherichia coli [26]): 0.5 µM |

Reference: ChEMBL document CHEMBL5543109, “Novel β-Hairpin Antimicrobial Peptide Containing the β-Turn Sequence of -NG- and the Tryptophan Zippers Facilitate Self-Assembly into Nanofibers, Exhibiting Excellent Antimicrobial Performance” (J Med Chem, 2024)
